The assay deals with Male CD-1 albino mice. Also on record: species or system mouse (CD-1 albino). To be noted: mouse, in vivo.

These results are taken from patent US4562191A (priority 1983, dated 1985).

SMILES strings stand for the structures. Where “and” joins values, the source holds several entries; their conditions need not be identical. Equal values may be shown once.

On to `CC(=O)Oc1ccccc1C(=O)O` [Acetyl-salicylic acid, acetylsalicylic acid], for which the “Mean number of contortions ± S.D.” value is reported as 13.5 ± 11.1 and the “No. of animals exhibiting contortions out of total” value is listed as 4/6. Turning to `CCC(=O)O[C@](Cc1ccccc1)(c1ccccc1)[C@H](C)CN(C)C` [D-propoxyphene], the “Mean number of contortions ± S.D.” value was 2.5 ± 2.1 and the “No. of animals exhibiting contortions out of total” value is recorded as 2/6. For `CCCCC1C(=O)N(c2ccccc2)N(c2ccccc2)C1=O` [Phenylbutazone], the “No. of animals exhibiting contortions out of total” value was 3/6 and 5/6.
